In patent US20250325543A1, “EGFR TKIs FOR USE IN THE TREATMENT OF NON-SMALL LUNG CANCER” (ASTRAZENECA AB, priority 2020, published 2025):

Experiments:
[1] = tested on: patients with advanced mutation-positive EGFR (Ex19del or L858R) NSCLC; settings: cited from earlier work
[2] = tested on: stage IB-IIIA EGFRm NSCLC patients; test: ADAURA phase 3 double-blind, randomized, placebo-controlled study of adjuvant AZD9291 after complete tumour resection; type: in vivo, human; settings: for DFS HR (95% CI) / reduction in the risk of disease recurrence or death: osimertinib vs placebo
Method: Adjuvant chemotherapy should have consisted of a platinum based doublet given for a maximum of 4 cycles.
Patients were randomised 1:1, to receive either AZD9291 or placebo. […] Patients were randomised within 10 weeks following complete surgical resection if adjuvant chemotherapy was not administered, within 26 weeks following surgery if adjuvant chemotherapy was administered.
Accounting for patients who are found to have wild type EGFR, sample attrition and 10% screen fail rate for other reasons, it was estimated that approximately 3200 patients would be screened to randomize approximately 700 patients. Approximately 60% of patients were recruited from Asia and 40% from non-Asian countries. The proportion of patients randomized with stage 1B cancer was approximately 30% and the proportion of patients randomized with stage II-IIIA cancer was approximately 70%. Patients were stratified at randomization by stage (IB vs II vs IIIA), mutation type (Ex19Del/L858R either alone or in combination with other EGFR mutations) as confirmed by a central laboratory using a tissue based test, and race (Asian/non-Asian).
Patients undergo regular CT scan (chest and abdomen including liver and adrenal glands) with additional anatomy imaging, as indicated by signs and symptoms of the patient, for disease recurrence. Disease free survival (DFS) shall be measured from the date of randomization until date of disease recurrence or death (from any cause) in the absence of recurrence by investigational site assessment.
Male and female patients aged 18 years and over (patients from Japan/Taiwan aged at least 20 years) with histologically confirmed diagnosis of primary non-squamous non-small cell carcinoma of the lung, with complete surgical resection of the primary tumour, and who were classified post-operatively as stage IB, II or IIIA on the basis of pathologic criteria were eligible for this study (stage IB patients were excluded in Japan). Recruitment of patients with stage IB disease was closed when approximately 210 (30%) had been randomized and recruitment of patients with stage II-IIIA disease was closed when approximately […] (70%) had been randomized. Patients were confirmed to have a tumour that harbours one of the most common EGFR mutations known to be associated with EGFR-TKI sensitivity (Ex19Del; L858R) either alone or in combination with other EGFR mutations as confirmed by a central test.
Treatment with AZD9291 (80 mg once daily) or placebo commenced following randomization. Patients will continue on randomised treatment until recurrence of disease, treatment discontinuation criterion is met or treatment is completed.
AZD9291 (80 mg orally, once daily) or matching placebo, in accordance with the randomization schedule, was administered.
Disease-free survival is the primary endpoint in this study and is defined as the time from the date of randomization until the date of disease recurrence or death from any cause in the absence of disease recurrence. Disease recurrence is defined as evidence of disease recurrence on CT or MRI scan and/or pathological disease on biopsy by investigational site assessment. The primary population is the stage II/IIIA patients.
DFS rate at 2, 3, 4 and 5 years is defined as the proportion of patients alive and disease free at 2, 3, 4 and 5 years, respectively, estimated from Kaplan Meier plots of the primary endpoint of DFS at the time of the primary analysis.
DFS in the subset of patients with stage II-IIIA cancer will be analysed using a log rank test stratified by stage (II, IIIA), mutation type (Ex19Del, L858R either alone or in combination with other EGFR mutations) and race (Asian, Non-Asian) for the generation of the p-value and using the Breslow approach for handling ties.

[3] = patients with CNS metastases on a baseline brain scan, vs standard EGFR-TKIs
[4] = Stage IB/II/IIIA (overall population)
[5] = Stage IB/II/IIIA (overall population), listed as osimertinib
[6] = Stage II/IIIA patient population, immature OS (5% maturity)

C=CC(=O)Nc1cc(Nc2nccc(-c3cn(C)c4ccccc34)n2)c(OC)cc1N(C)CCN(C)C [Osimertinib, N-(2-{2-dimethylaminoethyl-methylamino}-4-methoxy-5-{[4-(1-methylindol-3-yl)pyrimidin-2-yl]amino}phenyl) prop-2-enamide]
median overall survival ([1]; first-line therapy): 38.6 months
median progression free survival (PFS) ([1]; first-line therapy): 18.9 months
events of CNS progression, % patients ([1]; irrespective of known or treated CNS metastases at trial entry): 6%
hazard ratio for death ([1]; osimertinib vs comparator group): 0.80
PFS hazard ratio (HR) ([1]; osimertinib vs erlotinib or gefitinib): 0.46
median CNS PFS ([1]; patients with CNS metastases on a baseline brain scan): not reached
CNS PFS HR [1, 3]: 0.48
reduction in the risk of CNS progression [1, 3]: 52%
2 year DFS rate, % (95% CI) ([2]; Adjuvant chemotherapy received): 88.3%
2 year DFS rate, % (95% CI) ([2]; No adjuvant chemotherapy): 89.2%
2 year DFS rate, % (95% CI) ([2]; Stage IB): 87 (77, 93) %
Median DFS, months (95% CI) ([2]; Stage IB): NR (NC, NC)
2 year DFS rate, % (95% CI) [2, 4]: 88.8%
2 year DFS rate, % (95% CI) [2, 5]: 89%
2 year DFS rate, % (95% CI) ([2]; Stage II): 91 (82, 95)^ %
Median DFS, months (95% CI) ([2]; Stage II): NR (NC, NC)
2 year DFS rate, % (95% CI) ([2]; Stage II-IIIA): 89.5%
deaths (% of patients) [2, 6]: 3%
deaths (number of patients) [2, 6]: 8 deaths
2 year DFS rate, % (95% CI) ([2]; Stage IIIA): 88 (79, 94)^ %
Median DFS, months (95% CI) ([2]; Stage IIIA): 38.8 (38.6, NC)^ months
overall survival (in words) ([2]; immature OS (5% maturity)): trend towards survival favouring osimertinib
DFS HR (95% CI) ([2]; Stage IB): 0.50 (0.27, 0.94)
DFS HR (95% CI) [2, 4]: 0.21 (0.16, 0.28);
DFS HR (95% CI) [2, 5]: 0.21
DFS HR (95% CI) ([2]; Stage II): 0.17 (0.08, 0.31)
DFS HR (95% CI) ([2]; Stage II-IIIA): 0.17 (0.12, 0.23);
DFS HR (95% CI) ([2]; Stage II-IIIA, listed as osimertinib): 0.17 (0.12, 0.23)
DFS HR (95% CI) ([2]; Stage IIIA): 0.12 (0.07, 0.20)
DFS HR (95% CI) ([2]; adjuvant chemotherapy received): 0.17
DFS HR (95% CI) ([2]; no adjuvant chemotherapy): 0.17
reduction in the risk of disease recurrence or death ([2]; overall population): 79%
reduction in the risk of disease recurrence or death ([2]; primary population of stage II/IIIA patients): 83%
improvement in DFS (in words) ([2]; regardless of whether patients received prior adjuvant chemotherapy): consistent improvement in DFS
improvement in disease free survival (DFS) (in words) ([2]; stage IB/II/IIIA EGFRm NSCLC, adjuvant setting): statistically significant and clinically meaningful improvement
